Test results: publication PMC9873282, “Design, synthesis and evaluation of quinoline-O-carbamate derivatives as multifunctional agents for the treatment of Alzheimer’s disease” (Journal of Enzyme Inhibition and Medicinal Chemistry, 2023)
“And” between values parts separate entries of the source, which are not always exact repeats. Equal values may be shown once. Read-outs that look alike come from different tables or passages of the source.

Experiments:
eeAChE = target: T1, eeAChE (Electrophorus electricus, UniProt O42275); test: biochemical; design: species or system electric eel
T1 construct: eeAChE, from the electric eel; purchased Sigma Aldrich; host or cells: electric eel (natural source)
T1 sequence (O42275 24-633): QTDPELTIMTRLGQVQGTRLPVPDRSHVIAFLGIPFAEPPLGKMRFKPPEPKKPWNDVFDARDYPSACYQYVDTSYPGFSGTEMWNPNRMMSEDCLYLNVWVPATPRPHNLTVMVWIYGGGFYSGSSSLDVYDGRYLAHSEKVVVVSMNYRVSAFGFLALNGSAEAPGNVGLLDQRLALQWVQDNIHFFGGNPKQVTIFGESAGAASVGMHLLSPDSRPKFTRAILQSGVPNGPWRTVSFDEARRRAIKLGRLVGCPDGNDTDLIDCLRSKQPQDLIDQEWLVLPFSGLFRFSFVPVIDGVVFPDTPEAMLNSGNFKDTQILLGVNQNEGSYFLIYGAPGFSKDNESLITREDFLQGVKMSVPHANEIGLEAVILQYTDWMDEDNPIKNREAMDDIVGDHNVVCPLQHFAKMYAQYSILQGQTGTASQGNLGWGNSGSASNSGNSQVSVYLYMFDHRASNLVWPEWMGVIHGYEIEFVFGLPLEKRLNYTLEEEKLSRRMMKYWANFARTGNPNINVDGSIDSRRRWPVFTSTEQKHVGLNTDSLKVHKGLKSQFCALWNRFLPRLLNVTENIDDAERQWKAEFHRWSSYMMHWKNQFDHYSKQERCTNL
Description: (§1) The inhibitory activities of the synthesised compounds against eeAChE (from electric eel) and eqBuChE (from equine serum) were tested by the modified Ellman’s method[26]^,[27]. […] The determination of AChE and BuChE inhibitory potency of the synthesised compounds were evaluated by Ellman assay, the detailed procedure referred to our previous work[26]^,[27].

eqBuChE = target: T2, eqBuChE (Equus caballus, UniProt P81908); test: biochemical; design: species or system equine; conditions: for inhibition at 25 µM: read-out: eqBuChE inhibition rate; for IC50: BuChE from equine serum; for SI = IC50 (AChE)/IC50 (BuChE): eeAChE/eqBuChE
T2 construct: eqBuChE, from equine serum; purchased Sigma Aldrich; host or cells: equine serum (natural source)
T2 sequence (P81908 whole entry): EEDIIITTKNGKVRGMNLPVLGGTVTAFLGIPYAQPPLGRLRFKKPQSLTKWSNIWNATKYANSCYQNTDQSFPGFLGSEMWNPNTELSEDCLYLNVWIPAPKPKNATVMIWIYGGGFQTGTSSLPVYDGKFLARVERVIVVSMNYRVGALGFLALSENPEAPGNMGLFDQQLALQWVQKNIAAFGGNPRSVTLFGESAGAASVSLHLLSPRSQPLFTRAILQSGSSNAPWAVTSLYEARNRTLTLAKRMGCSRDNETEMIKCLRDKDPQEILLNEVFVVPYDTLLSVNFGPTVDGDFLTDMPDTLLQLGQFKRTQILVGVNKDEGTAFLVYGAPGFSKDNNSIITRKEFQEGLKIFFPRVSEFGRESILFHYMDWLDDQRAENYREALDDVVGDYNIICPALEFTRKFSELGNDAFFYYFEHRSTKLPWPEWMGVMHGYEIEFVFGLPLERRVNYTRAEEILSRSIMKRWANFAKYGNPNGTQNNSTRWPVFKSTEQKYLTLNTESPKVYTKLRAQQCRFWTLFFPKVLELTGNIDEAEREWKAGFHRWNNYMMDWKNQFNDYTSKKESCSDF
Description: as §1

[1] = tested on: Aβ25-35-induced PC12 cells injury; test: Neuroprotective effect on Aβ25-35-induced PC12 cells injury (CCK-8); assay type: cell-based; conditions: 25 µM Aβ25-35; model cell viability 57.3%
Description: (§2) The neuroprotective effect of compounds 3a, 3c, 3e, 3f, 3k, 3m, and 3n on Aβ25–35-induced PC12 cells injury were evaluated using CCK-8 assay. […] Furthermore, as shown in Figure 12(B), when PC12 cells were exposed to 25 µM Aβ25-35, the cell viability sharply declined to 57.3% (p < 0.01) compared with untreated group.
• Preparation of Aβ25-35 aggregation. Aβ25-35 was purchased from sigma. 1 mg Aβ25-35 was dissolved in 943 µL of sterilised deionised water to obtain 1 mM stock solution, aliquoted, –20 °C preservation. Removing the appropriate volume in a 48-well plate and incubated in a 37 °C incubator for two days to allow its ageing to accumulate and produce neurotoxicity. After aggregation was completed, the solution was diluted with PBS to get 25 µM solution of Aβ25-35 aggregation. • Neuroprotective effects of compounds on Aβ25-35-induced PC12 cells injury
(§3) The PC12 cells during the logarithmic growth phase were digested and centrifuged with pancreatic enzyme solution, the cells were resuspended by adding the prepared media solution, and piped evenly with a pipette to seed in a 96-well cell culture plate (cell concentration adjusted to 2.0 × 10^4 cell·mL^−1). Each well was added 100 µL complete medium was added to each well and incubated at 37 °C and 5% CO2 for 24 h.
After incubation for 24 h, PC12 cells were divided into blank group, control group, Aβ25-35 model group and tested compounds group (5, 10, 20 µM). Then the original medium was discarded, and 100 µL new complete medium were added to PC12 cells, and the tested compounds group was added to 100 µL complete medium containing different concentrations (5, 10, and 20 µM) of tested compounds, incubated for 2 h at 37 °C, 5% CO2 conditions. After incubation for 2 h, 10 µL Aβ25-35 solution was added to the tested compounds groups and model group (the final concentration of Aβ25-35 was 25 µM), and incubated for 24 h at 37 °C, 5% CO2 conditions, 10 µL CCK-8 was added to each well and further incubated for 1 h at 37 °C and 5% CO2. Finally, the OD value was measured at 450 nm using a microplate reader, and each concentration set three wells. The cell survival rate (%) was determined according to the following formula: cell viability (%) = {(ODdrug−ODblank)}/{(ODcontrol−ODblank)}.

PC12 cells = test: Cytotoxicity on PC12 cells; assay type: cell-based; conditions: at concentration below 40 µM
Description: as §2, §3

IL-6 = IL-6 production in LPS-stimulated BV-2 cells (ELISA); assay type: cell-based; conditions: 1 µM and 2 µM; 1 µg/mL LPS 24 h
Description: (§4) Firstly, the cytotoxicity of compounds 3a, 3c, 3e, 3f, 3k, 3m and 3n were tested using CCK8 assay.
(§5) BV-2 cells (2 × 10^5 cells/well) were seeded in a 24-well cell culture plates. The cells were divided into blank control group, model group (1 µg/mL LPS), LPS + 2 µM compound group, LPS + 1 µM compound group. Each drug group was pre-treated with corresponding concentration of drug solution for 8 h. After 8 h, the culture medium was aspirated out. Except for the blank control group, which was added with DMEM medium, the other groups were stimulated with 1 µg/mL LPS for 24 h. Then cell supernatant was aspirated and centrifuged at 3000 rpm for 3 min. The content of NO in cell culture supernatant was determined by Griess method, and the levels of cytokines IL-6 and IL-1β in cell culture supernatant were determined by IL-6 ELISA kit and IL-1β ELISA kit, respectively.

IL-1β = IL-1β production in LPS-stimulated BV-2 cells (ELISA); assay type: cell-based; conditions: 1 µg/mL LPS 24 h
Description: as §4, §5

NO = NO release in LPS-stimulated BV-2 cells (Griess method); assay type: cell-based; conditions: 1 µg/mL LPS 24 h
Description: as §4, §5

BV-2 cells = test: Cytotoxicity on BV-2 cells (CCK8 assay); assay type: cell-based; conditions: compounds at 2 µM
Description: as §4
BV-2 cells were cultured in DMEM containing 10% foetal bovine serum, 100 U/mL penicillin, 100 U/mL streptomycin, and 1% nonessential amino acid at 37 °C with 5% CO2.
BV-2 cells in logarithmic growth stage were digested and centrifuged, and then resuspended in DMEM medium containing 1% penicillin-streptomycin and 10% foetal bovine serum. The cells was adjusted to 1.2 × 10^4 cells/well, and then seeded evenly in 96-well cell culture plates. The cells were incubated for 36 h at 37 °C with 5% CO2. After incubation, the cells were added to different concentrations (10 and 2 µM) of tested compounds, and incubated for 24 h at 37 °C with 5% CO2. Then, 10 µL CCK-8 solution was added to each well, and incubated for another 1 h at 37 °C with 5% CO2. The OD values were tested at […]. The cell viability (%) = {(ODdrug−ODblank)}/{(ODcontrol−ODblank)} × 100%.

hAChE = target: T3, hAChE (Homo sapiens, UniProt P22303); test: biochemical; conditions: from human erythrocytes; read-out: IC50 ± SD hAChE
T3 construct: hAChE, from human erythrocytes AChE; purchased Sigma Aldrich; host or cells: human erythrocytes (natural source)
T3 sequence (P22303 32-617 isoform P22303-2 limits assumed): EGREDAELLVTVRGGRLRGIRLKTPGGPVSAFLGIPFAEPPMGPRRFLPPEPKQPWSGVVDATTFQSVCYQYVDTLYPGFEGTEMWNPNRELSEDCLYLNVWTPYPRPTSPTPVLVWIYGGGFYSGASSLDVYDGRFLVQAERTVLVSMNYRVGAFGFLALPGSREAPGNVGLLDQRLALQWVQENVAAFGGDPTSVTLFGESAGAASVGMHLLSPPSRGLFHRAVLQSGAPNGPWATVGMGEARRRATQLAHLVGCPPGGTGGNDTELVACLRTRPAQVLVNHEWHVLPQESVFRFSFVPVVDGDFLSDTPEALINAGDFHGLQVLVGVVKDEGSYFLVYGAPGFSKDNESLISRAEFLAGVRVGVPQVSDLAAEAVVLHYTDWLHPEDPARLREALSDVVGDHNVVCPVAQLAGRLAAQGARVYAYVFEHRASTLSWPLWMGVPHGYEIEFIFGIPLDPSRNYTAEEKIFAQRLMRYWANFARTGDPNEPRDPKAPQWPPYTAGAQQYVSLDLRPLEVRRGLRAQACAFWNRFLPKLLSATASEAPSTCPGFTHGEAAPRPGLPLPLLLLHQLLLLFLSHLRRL
Description: (§6) Acetylcholinesterase (eeAChE, from the electric eel; hAChE, from human erythrocytes AChE), butyrylcholinesterase (eqBuChE, from equine serum; hBuChE, human serum BuChE), 5,5′-dithiobis-2-nitrobenzoic acid (Ellman’s reagent, DTNB), acetylthiocholine chloride (ATC), and butyrylthiocholine chloride (BTC) were purchased form Sigma Aldrich. The determination of AChE and BuChE inhibitory potency of the synthesised compounds were evaluated by Ellman assay, the detailed procedure referred to our previous work[26]^,[27].

hBuChE = target: T4, hBuChE (Homo sapiens, UniProt P06276); test: biochemical
T4 construct: hBuChE, human serum BuChE; purchased Sigma Aldrich; host or cells: human serum (natural source)
T4 sequence (P06276 29-602): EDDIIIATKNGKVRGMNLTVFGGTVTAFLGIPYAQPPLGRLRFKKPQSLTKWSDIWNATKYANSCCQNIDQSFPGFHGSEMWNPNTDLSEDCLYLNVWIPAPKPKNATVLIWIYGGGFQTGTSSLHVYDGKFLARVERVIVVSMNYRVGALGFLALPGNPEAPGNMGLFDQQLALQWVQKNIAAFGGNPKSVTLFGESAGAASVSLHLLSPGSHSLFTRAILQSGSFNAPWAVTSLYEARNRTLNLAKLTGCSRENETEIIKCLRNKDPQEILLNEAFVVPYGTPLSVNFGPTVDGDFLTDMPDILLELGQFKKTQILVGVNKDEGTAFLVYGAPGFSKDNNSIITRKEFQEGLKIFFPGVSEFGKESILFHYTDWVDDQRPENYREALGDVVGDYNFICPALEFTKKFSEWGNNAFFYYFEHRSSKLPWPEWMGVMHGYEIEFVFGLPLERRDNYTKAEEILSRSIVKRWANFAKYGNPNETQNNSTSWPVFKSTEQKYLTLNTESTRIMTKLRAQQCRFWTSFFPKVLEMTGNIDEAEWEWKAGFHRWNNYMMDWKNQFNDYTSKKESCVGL
Description: as §6

[2] = AChE from electric eel, read-out: IC50 ± SD eeAChE

## CN(C)C(=O)Oc1ccc2ncccc2c1 [Compound 3i, Quinolin-6-yl dimethylcarbamate]
eeAChE
  IC50: 14.1 ± 0.43 µM
eqBuChE
  inhibition at 25 µM: 13.8 ± 0.61%

## CN(C)C(=O)Oc1cccc2cccnc12 [Compound 3m, Quinolin-8-yl dimethylcarbamate]
[1]
  neuroprotective effect on Aβ25-35-induced PC12 cells injury: significant neuroprotective effects at 5 and 10 µM
PC12 cells
  cytotoxicity on PC12 cells: did not show any cytotoxicity
IL-6
  levels of IL-6 compared with model group: significantly decreased
eeAChE
  IC50: 6.5 ± 0.05 µM
eqBuChE
  inhibition at 25 µM: 7.3 ± 0.05%
IL-1β
  levels of IL-1β compared with model group: did not obviously decrease
NO
  release volume of NO: significantly decreased
BV-2 cells
  cell viability of BV-2 cells: did not show obvious change

## O=C(Oc1ccc2ncccc2c1)N1CCOCC1 [Compound 3l, Quinolin-6-yl morpholine-4-carboxylate]
eeAChE; [2]
  IC50: 17.6 ± 0.61 µM
eqBuChE; at 25 μM of compounds
  inhibition at 25 µM: 13.8 ± 0.61%

## CCN(C)C(=O)Oc1cccc2cccnc12 [Compound 3o, Quinolin-8-yl ethyl(methyl)carbamate]
eeAChE
  IC50: 8.2 ± 0.06 µM
eqBuChE
  inhibition at 25 µM: 4.1 ± 0.02%

## CCN(C)C(=O)Oc1cccc2ncccc12 [Compound 3g, Quinolin-5-yl ethyl(methyl)carbamate]
eeAChE
  IC50: 3.2 ± 0.05 µM
eqBuChE; IC50 ± SD eqBuChE
  IC50: 2.23 µM and 2.2 µM
eqBuChE
  SI = IC50 (AChE)/IC50 (BuChE): 1.4

## CCN(C)C(=O)Oc1ccnc2ccccc12 [Compound 3c, Quinolin-4-yl ethyl(methyl)carbamate]
[1]
  neuroprotective effect on Aβ25-35-induced PC12 cells injury: did not show significant neuroprotective effects
PC12 cells
  cytotoxicity on PC12 cells: did not show any cytotoxicity
IL-6
  levels of IL-6 compared with model group: significantly decreased
eeAChE
  IC50: 13.2 ± 0.51 µM
eqBuChE; IC50 ± SD eqBuChE
  IC50: 1.92 µM and 1.9 µM
eqBuChE
  SI = IC50 (AChE)/IC50 (BuChE): 6.9
IL-1β
  levels of IL-1β compared with model group: did not obviously decrease
NO
  release volume of NO: significantly decreased
BV-2 cells
  cell viability of BV-2 cells: did not show obvious change

## O=C(Oc1ccnc2ccccc12)N1CCOCC1 [Compound 3d, Quinolin-4-yl morpholine-4-carboxylate]
eeAChE; [2]
  IC50: 15.7 ± 0.27 µM
eqBuChE; read-out: IC50 ± SD eqBuChE
  IC50: 0.87 ± 0.05 µM
eqBuChE
  SI = IC50 (AChE)/IC50 (BuChE): 18.0
hAChE
  IC50: 26.9 ± 0.74 µM
hBuChE; from human serum, read-out: IC50 ± SD hBuChE
  IC50: 9.46 µM and 9.5 µM
hBuChE; hAChE/hBuChE
  SI = IC50 (AChE)/IC50 (BuChE): 2.8

## CN(C)C(=O)Oc1ccnc2ccccc12 [Compound 3a, Quinolin-4-yl dimethylcarbamate]
[1]
  neuroprotective effect on Aβ25-35-induced PC12 cells injury: did not show significant neuroprotective effects
PC12 cells
  cytotoxicity on PC12 cells: did not show any cytotoxicity
IL-6
  levels of IL-6 compared with model group: significantly decreased
eeAChE
  IC50: 10.8 ± 0.33 µM
eqBuChE; IC50 ± SD eqBuChE
  IC50: 2.83 µM and 2.8 µM
eqBuChE
  SI = IC50 (AChE)/IC50 (BuChE): 3.8
IL-1β
  levels of IL-1β compared with model group: did not obviously decrease
NO
  release volume of NO: significantly decreased
BV-2 cells
  cell viability of BV-2 cells: did not show obvious change

## CCN(C)C(=O)Oc1ccc2ncccc2c1 [Compound 3k, Quinolin-6-yl ethyl(methyl)carbamate]
[1]
  neuroprotective effect on Aβ25-35-induced PC12 cells injury: significant neuroprotective effects at 10 µM
PC12 cells
  cytotoxicity on PC12 cells: did not show any cytotoxicity
IL-6
  levels of IL-6 compared with model group: significantly decreased
eeAChE
  IC50: 10.3 ± 0.58 µM
eqBuChE
  inhibition at 25 µM: 5.8 ± 0.03%
IL-1β
  levels of IL-1β compared with model group: significantly decreased
NO
  release volume of NO: significantly decreased
BV-2 cells
  cell viability of BV-2 cells: did not show obvious change
